Test results from ChEMBL document CHEMBL3046223, “Compounds against inflammation and oxidative insult as potential agents for neurodegenerative disorders” (Med Chem Res, 2012).
Values belong to the compound of their own block, whether it stands above or below them.

Key:
[1] = tested on: Rattus norvegicus; experiment: Anti-inflammatory activity in Rattus norvegicus Fischer-344 (rat) assessed as inhibition of carrageenan-induced paw oedema at 0.30 mmol/kg, ip administered 5 min before […] measured after 3 hr relative to control; format: functional; conditions: Fischer-344, ip
[2] = biological target: T1, Prostaglandin G/H synthase 1 (Ovis aries) (UniProt P05979); experiment: Inhibition of Ovis aries (sheep) COX1 assessed as formation of PGF2a at 200 uM by enzyme immunoassay
T1 sequence (whole entry): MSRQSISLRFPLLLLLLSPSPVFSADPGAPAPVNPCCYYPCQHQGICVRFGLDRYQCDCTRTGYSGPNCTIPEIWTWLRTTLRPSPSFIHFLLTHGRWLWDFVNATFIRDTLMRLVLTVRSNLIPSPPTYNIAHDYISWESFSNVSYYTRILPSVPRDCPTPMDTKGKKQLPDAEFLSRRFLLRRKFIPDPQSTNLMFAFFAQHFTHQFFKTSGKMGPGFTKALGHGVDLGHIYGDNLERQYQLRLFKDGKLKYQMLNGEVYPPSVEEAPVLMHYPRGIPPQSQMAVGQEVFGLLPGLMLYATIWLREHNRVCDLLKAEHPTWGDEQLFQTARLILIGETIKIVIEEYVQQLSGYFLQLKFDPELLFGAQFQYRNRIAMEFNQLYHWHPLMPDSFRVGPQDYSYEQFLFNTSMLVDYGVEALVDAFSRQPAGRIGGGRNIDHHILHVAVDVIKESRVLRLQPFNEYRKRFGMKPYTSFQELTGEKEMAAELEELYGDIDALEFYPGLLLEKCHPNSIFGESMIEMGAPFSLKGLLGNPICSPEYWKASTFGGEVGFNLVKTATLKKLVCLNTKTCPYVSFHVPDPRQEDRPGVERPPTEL

[3] = biological target: T2, Seed linoleate 13S-lipoxygenase-1 (Glycine max, UniProt P08170); experiment: Inhibition of Glycine max (soybean) lipoxygenase assessed as formation of 13-hydroperoxylinoleic acid using sodium linoleate as substrate after 7 min
T2 sequence (P08170 whole entry): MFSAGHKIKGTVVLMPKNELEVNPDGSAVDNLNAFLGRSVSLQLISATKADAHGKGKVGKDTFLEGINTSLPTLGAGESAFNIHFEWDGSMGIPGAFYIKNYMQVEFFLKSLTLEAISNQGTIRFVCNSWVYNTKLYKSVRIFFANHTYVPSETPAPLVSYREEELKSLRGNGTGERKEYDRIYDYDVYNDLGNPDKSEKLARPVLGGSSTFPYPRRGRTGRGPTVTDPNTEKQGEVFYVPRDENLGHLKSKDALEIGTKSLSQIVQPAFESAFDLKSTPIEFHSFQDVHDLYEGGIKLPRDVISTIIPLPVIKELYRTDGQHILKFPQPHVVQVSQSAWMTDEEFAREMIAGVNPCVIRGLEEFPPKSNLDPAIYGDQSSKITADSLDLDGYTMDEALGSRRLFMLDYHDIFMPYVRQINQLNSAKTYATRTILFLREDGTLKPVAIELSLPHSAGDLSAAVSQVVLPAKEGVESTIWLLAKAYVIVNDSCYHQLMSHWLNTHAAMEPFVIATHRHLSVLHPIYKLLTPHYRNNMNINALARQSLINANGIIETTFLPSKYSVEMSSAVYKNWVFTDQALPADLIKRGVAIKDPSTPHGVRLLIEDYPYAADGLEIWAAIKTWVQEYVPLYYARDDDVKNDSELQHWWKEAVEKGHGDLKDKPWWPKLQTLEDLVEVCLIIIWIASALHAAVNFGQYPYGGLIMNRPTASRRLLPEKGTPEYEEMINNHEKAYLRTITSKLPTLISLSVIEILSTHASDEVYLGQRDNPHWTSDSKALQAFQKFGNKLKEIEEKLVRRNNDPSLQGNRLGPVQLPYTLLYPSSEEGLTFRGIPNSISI

[4] = Drug uptake in Rattus norvegicus (rat) brain at 0.6 mmol/kg, ip after 30 min by RP-HPLC analysis; format: ADME, organism-based; conditions: read-out: Drug uptake
[5] = Drug uptake in Rattus norvegicus (rat) brain at 0.6 mmol/kg, ip after 120 min by RP-HPLC analysis; format: ADME, organism-based; conditions: read-out: Drug uptake
[6] = Drug uptake in Rattus norvegicus (rat) brain at 0.6 mmol/kg, ip after 60 min by RP-HPLC analysis; format: ADME, organism-based; conditions: read-out: Drug uptake
[7] = tested on: Liver microsome; experiment: Antioxidant activity in Rattus norvegicus (rat) liver microsomal fraction assessed as inhibition of lipid peroxidation at 1 mM after 45 min by spectrophotometric analysis; format: functional, microsomes
[8] = tested on: Mus musculus; experiment: Anti-inflammatory activity in Balb-C Mus musculus (mouse) assessed as inhibition of FCA-induced paw oedema at 0.30 mmol/kg, ip administered 5 min before FCA challenge measured after 3 hr relative to control; format: functional
[9] = tested on: Rattus norvegicus; experiment: Toxicity in Rattus norvegicus (rat) assessed as body weight change per 100 gram body weight at 200 umol/kg, sc qd for 4 days; format: organism-based; conditions: in vivo, 96 h
[10] = tested on: Rattus norvegicus; experiment: Gastrointestinal toxicity in Rattus norvegicus (rat) assessed as incidence of melena at 200 umol/kg, sc qd for 4 days; format: organism-based; conditions: in vivo, 96 h
[11] = tested on: Rattus norvegicus; experiment: Gastrointestinal toxicity in Rattus norvegicus (rat) assessed as perforating ulcers at 200 umol/kg, sc qd for 4 days; format: organism-based; conditions: in vivo, 96 h
[12] = Toxicity in Rattus norvegicus (rat) assessed as mortality at 200 umol/kg, sc qd for 4 days; format: organism-based; conditions: in vivo
[13] = Ratio of drug level in brain to blood in Rattus norvegicus (rat) at 0.6 mmol/kg, ip after 2 hr by RP-HPLC analysis; format: ADME, organism-based
[14] = Ratio of drug level in brain to blood in Rattus norvegicus (rat) at 0.6 mmol/kg, ip after 3 hr by RP-HPLC analysis; format: ADME, organism-based
[15] = tested on: Rattus norvegicus; experiment: Toxicity in rat assessed as body weight change per 100 gram body weight at 84 umol/kg, sc qd for 4 days; format: organism-based; conditions: in vivo, 96 h
[16] = tested on: Mus musculus; experiment: Anti-inflammatory activity in Balb-C Mus musculus (mouse) assessed as inhibition of FCA-induced paw oedema at 0.15 mmol/kg, ip administered 5 min before FCA challenge measured after 3 hr relative to control; format: functional
[17] = tested on: Rattus norvegicus; experiment: Gastrointestinal toxicity in Rattus norvegicus (rat) assessed as perforating ulcers at 84 umol/kg, sc qd for 4 days; format: organism-based; conditions: in vivo, 96 h
[18] = Toxicity in Rattus norvegicus (rat) assessed as mortality at 84 umol/kg, sc qd for 4 days; format: organism-based; conditions: in vivo
[19] = tested on: Rattus norvegicus; experiment: Gastrointestinal toxicity in Rattus norvegicus (rat) assessed as incidence of melena at 84 umol/kg, sc qd for 4 days; format: organism-based; conditions: in vivo, 96 h
[20] = tested on: Liver microsome; experiment: Antioxidant activity in Rattus norvegicus (rat) liver microsomal fraction assessed as inhibition of lipid peroxidation after 45 min by spectrophotometric analysis; format: functional, microsomes; conditions: 0.75 h
[21] = tested on: Rattus norvegicus; experiment: Anti-inflammatory activity in Rattus norvegicus (rat) ischemia-reperfusion model assessed as reduction of malondialdehyde formation in brain at 0.4 mmol/kg, ip qd for 4 days and dose repeated 2 hr before initiation of ischemia measured 90 min after reperfusion; format: functional

Compound: C[C@H](C(=O)O)c1cccc(C(=O)c2ccccc2)c1 [DEXKETOPROFEN]
inhibition in vivo at 300 µmol/kg [1]: 42%

inhibition [2]: 71%
IC50 [3]: 28 µM
Compound: COc1ccc2cc(C(C)C(=O)OCCCc3cccnc3)ccc2c1 (stereo unspecified)
inhibition in vivo at 300 µmol/kg [1]: 27%

concentration at 0.5 h [4]: 1590 ng/g
concentration at 2 h [5]: 27800 ng/g
concentration at 1 h [6]: 40800 ng/g
Compound: CCOC(=O)C(CS)NC(=O)C1CCCN1C(=O)C(C)c1ccc(CC(C)C)cc1 (stereo unspecified)

IC50 [3]: 240 µM
Compound: CC(C)Cc1ccc(C(C)C(=O)N2CCCC2C(=O)OCCO[N+](=O)[O-])cc1 (stereo unspecified)
inhibition [7]: 14%
inhibition in vivo at 300 µmol/kg [8]: 62%

inhibition [2]: 16%
Compound: COc1ccc2cc(C(C)C(=O)N3CCCC3C(=O)Oc3ccc(C)cc3OC)ccc2c1 (stereo unspecified)
inhibition in vivo at 300 µmol/kg [1]: 20%

IC50 [3]: 60 µM
Compound: COc1cc(C)ccc1OC(=O)C1CCCN1C(=O)C(C)c1cccc(C(=O)c2ccccc2)c1 (stereo unspecified)
inhibition in vivo at 300 µmol/kg [1]: 13%

Compound: CC(C)Cc1ccc([C@H](C)C(=O)O)cc1 [DEXIBUPROFEN]
inhibition in vivo at 300 µmol/kg [8]: 53%

Compound: CC(C(=O)OCCCc1cccnc1)c1cccc(C(=O)c2ccccc2)c1 (stereo unspecified)
Activity [9]: -13 g
inhibition [2]: 87%
Activity [10]: 60%
Activity [11]: 50%
IC50 [3]: 145 µM
inhibition in vivo at 300 µmol/kg [1]: 61%
mortality at 96 h [12]: 33%

IC50 [3]: 65 µM
Compound: COc1cc(C)ccc1OC(=O)C(C)c1ccc(CC(C)C)cc1 (stereo unspecified)
inhibition in vivo at 300 µmol/kg [8]: 43%

Kp at 2 h [13]: 0.04
concentration at 0.5 h [4]: 26600 ng/g
concentration at 2 h [5]: 710 ng/g
concentration at 1 h [6]: 5700 ng/g
Kp at 3 h [14]: 0.004
Compound: COc1ccc2cc([C@H](C)C(=O)N3CC(O)CC3C(=O)NCCS)ccc2c1 (stereo partly specified)

IC50 [3]: 60 µM
Compound: CC(C)Cc1ccc(C(C)C(=O)N2CCCC2C(=O)OCCCc2ccccc2)cc1 (stereo unspecified)
inhibition in vivo at 300 µmol/kg [8]: 31%

IC50 [3]: 45 µM
Compound: CC(C)Cc1ccc(C(C)C(=O)OCCCc2cccnc2)cc1 (stereo unspecified)
inhibition in vivo at 300 µmol/kg [8]: 59%

Compound: COc1ccc2c(c1)c(CC(=O)O)c(C)n2C(=O)c1ccc(Cl)cc1 [INDOMETHACIN]
Activity [15]: -15 g
inhibition in vivo at 150 µmol/kg [16]: 68%
Activity [17]: 80%
mortality at 96 h [18]: 50%
Activity [19]: 100%

IC50 [20]: 650 µM
Compound: CC(C(=O)NCCS)c1cccc(C(=O)c2ccccc2)c1 (stereo unspecified)
inhibition in vivo at 300 µmol/kg [1]: 39%

IC50 [20]: 440 µM
IC50 [3]: 170 µM
Compound: CCOC(=O)C(CS)NC(=O)C1CCCN1C(=O)C(C)c1cccc(C(=O)c2ccccc2)c1 (stereo unspecified)
inhibition in vivo at 300 µmol/kg [1]: 52%

IC50 [20]: 390 µM
Compound: CCOC(=O)C(CS)NC(=O)C1CCCN1C(=O)Cc1c(C)n(C(=O)c2ccc(Cl)cc2)c2ccc(OC)cc12 (stereo unspecified)
inhibition in vivo at 150 µmol/kg [16]: 25%
Activity [21]: 3 nmol/mg
inhibition in vivo at 300 µmol/kg [8]: 44%

IC50 [20]: 8 µM
Compound: CCOC(=O)C(CS)NC(=O)C1CCCCN1C(=O)Cc1c(C)[nH]c2ccc(OC)cc12 (stereo unspecified)

concentration at 0.5 h [4]: 9780 ng/g
concentration at 2 h [5]: 35200 ng/g
concentration at 1 h [6]: 10200 ng/g
Compound: CC(C)Cc1ccc(C(C)C(=O)N2CCCC2C(=O)NCCS)cc1 (stereo unspecified)

inhibition [2]: 52%
Compound: COc1ccc2cc([C@H](C)C(=O)O)ccc2c1 [NAPROXEN]
inhibition in vivo at 300 µmol/kg [1]: 51%

IC50 [3]: 90 µM
Compound: COc1ccc2cc(C(C)C(=O)Oc3ccc(C)cc3OC)ccc2c1 (stereo unspecified)
inhibition in vivo at 300 µmol/kg [1]: 40%

Compound: CC(C(=O)O)c1cccc(C(=O)c2ccccc2)c1 (stereo unspecified) [KETOPROFEN]
Activity [9]: -24 g
inhibition [2]: 86%
Activity [10]: 100%
Activity [11]: 85%
mortality at 96 h [12]: 50%

IC50 [3]: 46 µM
Compound: COc1ccc2cc(C(C)C(=O)N3CCCC3C(=O)OCCCc3cccnc3)ccc2c1 (stereo unspecified)
inhibition in vivo at 300 µmol/kg [1]: 24%

Compound: COc1ccc2c(c1)c(CC(=O)N1CCCC1C(=O)Oc1ccc(C)cc1OC)c(C)n2C(=O)c1ccc(Cl)cc1 (stereo unspecified)
Activity [15]: 11 g
inhibition in vivo at 150 µmol/kg [16]: 49%
inhibition [2]: 16%
Activity [17]: 0%
inhibition in vivo at 300 µmol/kg [8]: 54%
mortality at 96 h [18]: 0%
Activity [19]: 0%

IC50 [3]: 320 µM
Compound: CC(C)Cc1ccc(C(C)C(=O)N2CCCC2C(=O)OCCO)cc1 (stereo unspecified)
inhibition in vivo at 300 µmol/kg [8]: 24%
